{"source": "patent EP2573192A1", "about": "“METHOD AND KIT FOR DIAGNOSING AIM-RELATED ILLNESS” (Miyazaki, Toru, priority 2010, dated 2011)", "biological_target": "FAS (Mus musculus, UniProt P19096)", "sequence (P19096 whole entry)": "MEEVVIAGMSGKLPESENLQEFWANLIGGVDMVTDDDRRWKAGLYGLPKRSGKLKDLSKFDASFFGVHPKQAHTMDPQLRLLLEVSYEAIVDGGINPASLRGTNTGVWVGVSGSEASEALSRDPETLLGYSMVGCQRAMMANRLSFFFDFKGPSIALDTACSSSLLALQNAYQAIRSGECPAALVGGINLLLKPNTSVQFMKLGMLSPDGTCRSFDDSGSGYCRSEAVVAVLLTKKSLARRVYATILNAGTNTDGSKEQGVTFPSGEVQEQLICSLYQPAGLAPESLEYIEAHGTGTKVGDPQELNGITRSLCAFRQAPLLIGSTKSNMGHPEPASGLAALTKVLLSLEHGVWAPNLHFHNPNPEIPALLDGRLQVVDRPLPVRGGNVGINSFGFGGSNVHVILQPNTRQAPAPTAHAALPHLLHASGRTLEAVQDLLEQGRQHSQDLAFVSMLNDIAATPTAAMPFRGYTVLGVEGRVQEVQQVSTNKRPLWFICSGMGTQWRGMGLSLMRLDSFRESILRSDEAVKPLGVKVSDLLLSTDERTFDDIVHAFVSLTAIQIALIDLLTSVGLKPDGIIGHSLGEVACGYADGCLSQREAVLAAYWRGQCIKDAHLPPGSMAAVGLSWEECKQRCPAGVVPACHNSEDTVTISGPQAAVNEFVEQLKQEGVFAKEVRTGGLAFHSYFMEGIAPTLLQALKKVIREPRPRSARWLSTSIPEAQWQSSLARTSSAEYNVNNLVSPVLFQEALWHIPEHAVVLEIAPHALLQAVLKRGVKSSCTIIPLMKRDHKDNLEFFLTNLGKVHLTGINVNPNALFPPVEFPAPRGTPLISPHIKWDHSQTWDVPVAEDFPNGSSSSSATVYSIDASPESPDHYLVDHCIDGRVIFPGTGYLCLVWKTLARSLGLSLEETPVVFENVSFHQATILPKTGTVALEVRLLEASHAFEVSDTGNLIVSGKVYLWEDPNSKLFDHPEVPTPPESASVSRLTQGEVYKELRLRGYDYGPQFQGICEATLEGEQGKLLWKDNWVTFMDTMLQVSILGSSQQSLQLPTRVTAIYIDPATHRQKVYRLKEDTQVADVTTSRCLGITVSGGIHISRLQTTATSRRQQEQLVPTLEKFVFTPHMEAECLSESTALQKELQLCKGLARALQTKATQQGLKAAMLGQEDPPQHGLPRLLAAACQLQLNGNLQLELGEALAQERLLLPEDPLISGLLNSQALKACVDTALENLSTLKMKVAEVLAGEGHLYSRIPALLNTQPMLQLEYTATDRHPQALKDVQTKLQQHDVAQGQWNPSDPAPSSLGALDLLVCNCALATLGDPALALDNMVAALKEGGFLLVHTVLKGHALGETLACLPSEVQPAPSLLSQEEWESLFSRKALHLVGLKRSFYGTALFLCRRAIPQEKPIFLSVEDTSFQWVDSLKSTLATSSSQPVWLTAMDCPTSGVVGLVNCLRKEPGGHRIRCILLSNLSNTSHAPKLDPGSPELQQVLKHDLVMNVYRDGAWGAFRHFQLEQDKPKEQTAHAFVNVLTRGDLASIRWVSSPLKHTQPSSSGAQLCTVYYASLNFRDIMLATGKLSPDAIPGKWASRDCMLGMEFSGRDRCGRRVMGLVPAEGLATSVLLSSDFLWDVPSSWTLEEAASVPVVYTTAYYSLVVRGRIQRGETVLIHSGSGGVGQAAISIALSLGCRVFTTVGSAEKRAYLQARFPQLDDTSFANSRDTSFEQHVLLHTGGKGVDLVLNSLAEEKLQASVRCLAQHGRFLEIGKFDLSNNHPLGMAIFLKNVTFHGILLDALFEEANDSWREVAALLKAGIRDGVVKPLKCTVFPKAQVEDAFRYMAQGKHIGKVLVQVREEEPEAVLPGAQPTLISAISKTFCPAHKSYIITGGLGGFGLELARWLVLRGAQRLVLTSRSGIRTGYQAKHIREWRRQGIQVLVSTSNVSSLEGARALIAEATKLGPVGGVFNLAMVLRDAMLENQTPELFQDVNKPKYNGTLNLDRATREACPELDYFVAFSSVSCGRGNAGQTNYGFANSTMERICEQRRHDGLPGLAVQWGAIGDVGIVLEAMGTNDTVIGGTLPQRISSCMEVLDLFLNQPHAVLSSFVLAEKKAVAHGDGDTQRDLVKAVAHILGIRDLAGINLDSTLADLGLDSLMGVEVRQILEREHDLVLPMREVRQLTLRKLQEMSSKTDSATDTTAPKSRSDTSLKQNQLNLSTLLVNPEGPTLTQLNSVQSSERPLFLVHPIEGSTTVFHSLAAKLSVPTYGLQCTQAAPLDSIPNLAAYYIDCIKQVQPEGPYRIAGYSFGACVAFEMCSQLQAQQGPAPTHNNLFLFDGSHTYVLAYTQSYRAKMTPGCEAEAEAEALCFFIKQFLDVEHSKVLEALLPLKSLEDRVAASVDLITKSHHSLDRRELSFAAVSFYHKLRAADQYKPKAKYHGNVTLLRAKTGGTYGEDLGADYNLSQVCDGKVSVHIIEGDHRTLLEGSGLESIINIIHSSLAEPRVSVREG", "experiment": "FAS activity of treated 3T3-L1 cells (method of Kelley, NADPH oxidation)", "format": "cell-based", "settings": "C75 25 µM, 6 days; compared with rAIM", "description": "The influence of AIM on FAS activity of adipocyte or adipose tissue was examined. FAS activity was measured by the method of Kelley (Kelley et al., Biochem. J., 1986, 235:87-90) with slight modification. 3T3-L1 adipocytes, or lysates of adipose tissue of obese mice was mixed with acetyl-CoA and NADPH (0.2 M calcium phosphate buffer [pH 7.0] containing 0.4 mM EDTA), and the mixture was placed in a spectrophotometer cuvette and maintained at 30°C. 20 µl of malonyl-CoA solution (0.2 mM) was added to start an enzyme reaction and decrease of OD was measured at a chart speed 2 cm/min. Based on the results, the enzyme activity of FAS was evaluated using the molar extinction coefficient of oxidized NADPH as 6220.\nFirst, the FAS activity of 3T3-L1 cells treated for 6 days in the presence or absence of rAIM (5 µg/ml), and in the presence of C75 (25 µM) was measured. […] The samples were dissolved (lysed) and the FAS activity was measured. The data was converted to that based on FAS protein, according to the results of WB performed using the same sample."}
{"smiles": "C=C1C(=O)OC(CCCCCCCC)C1C(=O)O", "note": "(stereo not shown) [C75]", "values": [{"measurement": "level of suppression of FAS activity in 3T3-L1 adipocytes", "result": "level of suppression was the same"}]}
